Laboratory results published in ChEMBL document CHEMBL3797052 (Eur J Med Chem, 2016).

Key:
[1] = Antiproliferative activity against human UACC62 cells assessed as growth inhibition after 48 hrs by sulforhodamine B assay; format: functional; details: UACC-62, 48 h; for CC50: read-out: LC50 (the source's name)
[2] = system: MDA-MB-435; assay: Antiproliferative activity against human MDA-MB-435 cells assessed as growth inhibition after 48 hrs by sulforhodamine B assay; format: functional; details: MDA-MB-435, 48 h; for CC50: read-out: LC50 (the source's name)
[3] = system: A498; assay: Antiproliferative activity against human A498 cells assessed as growth inhibition after 48 hrs by sulforhodamine B assay; format: functional; details: A498, 48 h
[4] = Antiproliferative activity against human SKOV3 cells assessed as growth inhibition after 48 hrs by sulforhodamine B assay; format: functional; details: SK-OV-3, 48 h; for CC50: read-out: LC50 (the source's name)
[5] = system: HT-29; assay: Antiproliferative activity against human HT-29 cells assessed as growth inhibition after 48 hrs by sulforhodamine B assay; format: functional; details: HT-29, 48 h
[6] = Antiproliferative activity against human BT549 cells assessed as growth inhibition after 48 hrs by sulforhodamine B assay; format: functional; details: BT-549, 48 h; for CC50: read-out: LC50 (the source's name)
[7] = Antiproliferative activity against human SNB19 cells assessed as growth inhibition after 48 hrs by sulforhodamine B assay; format: functional; details: SNB-19, 48 h
[8] = system: MDA-MB-231; assay: Antiproliferative activity against human MDA-MB-231 cells assessed as growth inhibition after 48 hrs by sulforhodamine B assay; format: functional; details: MDA-MB-231, 48 h; for CC50: read-out: LC50 (the source's name)
[9] = Antiproliferative activity against human SF539 cells assessed as growth inhibition after 48 hrs by sulforhodamine B assay; format: functional; details: SF-539, 48 h
[10] = system: MDA-MB-468; assay: Antiproliferative activity against human MDA-MB-468 cells assessed as growth inhibition after 48 hrs by sulforhodamine B assay; format: functional; details: MDA-MB-468, 48 h; for CC50: read-out: LC50 (the source's name)
[11] = system: K562; assay: Antiproliferative activity against human K562 cells assessed as cell growth at 10^-7 M after 48 hrs by sulforhodamine B assay; format: functional; details: K562, 48 h, read-out: Activity
[12] = system: CCRF-CEM; assay: Antiproliferative activity against human CCRF-CEM cells assessed as cell growth at 10^-6 M after 48 hrs by sulforhodamine B assay; format: functional; details: read-out: Activity
[13] = system: U-251; assay: Antiproliferative activity against human U251 cells assessed as cell growth at 10^-8 M after 48 hrs by sulforhodamine B assay; format: functional; details: U-251, 48 h, read-out: Activity
[14] = system: HT-29; assay: Antiproliferative activity against human HT-29 cells assessed as cell growth at 10^-4 M after 48 hrs by sulforhodamine B assay; format: functional; details: HT-29, 48 h, read-out: Activity
[15] = Antiproliferative activity against human UO31 cells assessed as cell growth at 10^-7 M after 48 hrs by sulforhodamine B assay; format: functional; details: UO-31, 48 h, read-out: Activity
[16] = system: CCRF-CEM; assay: Antiproliferative activity against human CCRF-CEM cells assessed as cell growth at 10^-7 M after 48 hrs by sulforhodamine B assay; format: functional; details: read-out: Activity
[17] = Antiproliferative activity against human HL-60(TB) cells assessed as cell growth at 10^-6 M after 48 hrs by sulforhodamine B assay; format: functional; details: HL-60, 48 h, read-out: Activity
[18] = Antiproliferative activity against human DU145 cells assessed as cell growth at 10^-7 M after 48 hrs by sulforhodamine B assay; format: functional; details: DU-145, 48 h, read-out: Activity
[19] = molecular target: Serine/threonine-protein kinase B-raf (Homo sapiens, UniProt P15056, V600E); assay: Inhibition of BRAF V600E mutant (unknown origin) measured after 40 mins by scintillation counting
Chain of Serine/threonine-protein kinase B-raf (P15056 2-766 V600E limits assumed): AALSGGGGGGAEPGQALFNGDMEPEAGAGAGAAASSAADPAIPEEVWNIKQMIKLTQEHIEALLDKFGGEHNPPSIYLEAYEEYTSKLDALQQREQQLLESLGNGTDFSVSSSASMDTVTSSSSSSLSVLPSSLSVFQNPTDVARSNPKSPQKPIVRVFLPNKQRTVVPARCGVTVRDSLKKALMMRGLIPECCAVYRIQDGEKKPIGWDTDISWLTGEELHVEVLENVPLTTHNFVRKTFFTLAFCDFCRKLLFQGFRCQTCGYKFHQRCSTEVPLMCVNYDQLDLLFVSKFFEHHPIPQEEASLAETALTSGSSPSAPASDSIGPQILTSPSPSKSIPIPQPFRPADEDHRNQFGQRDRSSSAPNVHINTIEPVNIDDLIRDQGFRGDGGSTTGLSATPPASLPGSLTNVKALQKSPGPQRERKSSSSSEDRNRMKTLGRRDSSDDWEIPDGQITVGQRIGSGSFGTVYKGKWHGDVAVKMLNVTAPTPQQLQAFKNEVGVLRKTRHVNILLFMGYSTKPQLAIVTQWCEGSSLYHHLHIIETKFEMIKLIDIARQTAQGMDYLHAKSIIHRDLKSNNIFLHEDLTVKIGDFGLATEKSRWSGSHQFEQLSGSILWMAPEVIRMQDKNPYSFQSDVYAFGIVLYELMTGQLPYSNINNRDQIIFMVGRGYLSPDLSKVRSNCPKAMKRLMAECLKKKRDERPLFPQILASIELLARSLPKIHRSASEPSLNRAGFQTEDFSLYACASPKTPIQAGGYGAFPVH

[20] = system: NCI-H460; assay: Antiproliferative activity against human NCI-H460 cells assessed as cell growth at 10^-8 M after 48 hrs by sulforhodamine B assay; format: functional; details: NCI-H460, 48 h, read-out: Activity
[21] = system: MCF7; assay: Antiproliferative activity against human MCF7 cells assessed as cell growth at 10^-6 M after 48 hrs by sulforhodamine B assay; format: functional; details: MCF7, 48 h, read-out: Activity
[22] = Antiproliferative activity against human UACC62 cells assessed as cell growth at 10^-6 M after 48 hrs by sulforhodamine B assay; format: functional; details: UACC-62, 48 h, read-out: Activity
[23] = system: A549; assay: Antiproliferative activity against human A549/ATCC cells assessed as cell growth at 10^-4 M after 48 hrs by sulforhodamine B assay; format: functional; details: A549, 48 h, read-out: Activity
[24] = Antiproliferative activity against human SKOV3 cells assessed as cell growth at 10^-8 M after 48 hrs by sulforhodamine B assay; format: functional; details: SK-OV-3, 48 h, read-out: Activity
[25] = Antiproliferative activity against human SF539 cells assessed as cell growth at 10^-7 M after 48 hrs by sulforhodamine B assay; format: functional; details: SF-539, 48 h, read-out: Activity
[26] = system: SK-MEL-28; assay: Antiproliferative activity against human SK-MEL-28 cells assessed as cell growth at 10^-8 M after 48 hrs by sulforhodamine B assay; format: functional; details: SK-MEL-28, 48 h, read-out: Activity
[27] = system: MDA-MB-435; assay: Antiproliferative activity against human MDA-MB-435 cells assessed as cell growth at 10^-7 M after 48 hrs by sulforhodamine B assay; format: functional; details: MDA-MB-435, 48 h, read-out: Activity
[28] = Antiproliferative activity against human DU145 cells assessed as cell growth at 10^-6 M after 48 hrs by sulforhodamine B assay; format: functional; details: DU-145, 48 h, read-out: Activity
[29] = system: NCI-H322M; assay: Antiproliferative activity against human NCI-H322M cells assessed as cell growth at 10^-8 M after 48 hrs by sulforhodamine B assay; format: functional; details: read-out: Activity
[30] = Antiproliferative activity against human SF539 cells assessed as cell growth at 10^-4 M after 48 hrs by sulforhodamine B assay; format: functional; details: SF-539, 48 h, read-out: Activity
[31] = system: KM12; assay: Antiproliferative activity against human KM12 cells assessed as cell growth at 10^-4 M after 48 hrs by sulforhodamine B assay; format: functional; details: KM12, 48 h, read-out: Activity
[32] = system: SK-MEL-2; assay: Antiproliferative activity against human SK-MEL-2 cells assessed as cell growth at 10^-8 M after 48 hrs by sulforhodamine B assay; format: functional; details: SK-MEL-2, 48 h, read-out: Activity
[33] = Antiproliferative activity against human OVCAR3 cells assessed as cell growth at 10^-8 M after 48 hrs by sulforhodamine B assay; format: functional; details: OVCAR-3, 48 h, read-out: Activity
[34] = system: 786-0; assay: Antiproliferative activity against human 786-0 cells assessed as cell growth at 10^-8 M after 48 hrs by sulforhodamine B assay; format: functional; details: 786-0, 48 h, read-out: Activity

CNC(=O)c1cc(Oc2ccc(NC(=O)Nc3ccc(Cl)c(C(F)(F)F)c3)cc2)ccn1 [SORAFENIB]
TGI [1]: 5.01 µM
CC50 [1]: 20 µM
TGI [2]: 3.98 µM
CC50 [2]: 10 µM
GI50 [3]: 2.51 µM
TGI [3]: 6.31 µM
GI50 [4]: 2.51 µM
TGI [4]: 12.6 µM
CC50 [4]: 63.1 µM
GI50 [5]: 2 µM
TGI [5]: 7.94 µM
GI50 [6]: 3.16 µM
TGI [6]: 5.01 µM
CC50 [6]: 15.8 µM
GI50 [7]: 3.16 µM
TGI [7]: 15.8 µM
GI50 [8]: 1.26 µM
TGI [8]: 3.98 µM
CC50 [8]: 20 µM
TGI [9]: 10 µM
GI50 [10]: 2 µM
TGI [10]: 7.94 µM
CC50 [10]: 39.8 µM

CNC(=O)c1cc(Oc2ccc3nc(NC(=O)Nc4cc(C(F)(F)F)cc(C(F)(F)F)c4)sc3c2)ccn1
growth at 0.1 µM [11]: 97%
growth at 1 µM [12]: 52%
growth at 0.01 µM [13]: 103%
growth at 100 µM [14]: -82%
growth at 0.1 µM [15]: 94%
growth at 0.1 µM [16]: 114%
growth at 1 µM [17]: 75%
GI50 [1]: 0.583 µM
TGI [1]: 2.1 µM
CC50 [1]: 5.77 µM
growth at 0.1 µM [18]: 97%
IC50 [19]: 1.23 µM
GI50 [2]: 1.04 µM
TGI [2]: 2.7 µM
CC50 [2]: 6.99 µM
GI50 [3]: 1.02 µM
LC50 (concentration killing 50% of cells) [3]: 5.97 µM
TGI [3]: 2.47 µM
growth at 0.01 µM [20]: 102%
growth at 1 µM [21]: 52%
growth at 1 µM [22]: 37%
growth at 100 µM [23]: -97%
GI50 [4]: 1.43 µM
TGI [4]: 3.18 µM
CC50 [4]: 7.09 µM
growth at 0.01 µM [24]: 87%
growth at 0.1 µM [25]: 99%
GI50 [5]: 1.21 µM
LC50 [5]: 6.17 µM
TGI [5]: 2.73 µM
GI50 [6]: 1.34 µM
TGI [6]: 3.07 µM
CC50 [6]: 7.05 µM
growth at 0.01 µM [26]: 93%
growth at 0.1 µM [27]: 95%
GI50 [7]: 1.34 µM
LC50 (50% lethal concentration) [7]: > 100 µM
TGI [7]: 4.43 µM
GI50 [8]: 0.829 µM
TGI [8]: 2.62 µM
CC50 [8]: 7.5 µM
growth at 1 µM [28]: 63%
growth at 0.01 µM [29]: 95%
growth at 100 µM [30]: -77%
GI50 [9]: 1.24 µM
LC50 [9]: 6.33 µM
TGI [9]: 2.8 µM
growth at 100 µM [31]: -61%
growth at 0.01 µM [32]: 90%
growth at 0.01 µM [33]: 101%
GI50 [10]: 0.399 µM
TGI [10]: 1.75 µM
CC50 [10]: 6.08 µM
growth at 0.01 µM [34]: 92%

CNC(=O)c1cc(Oc2ccc3nc(NC(=O)Nc4ccc(Cl)c(C(F)(F)F)c4)sc3c2)ccn1
growth at 0.1 µM [11]: 104%
growth at 1 µM [12]: 73%
growth at 0.01 µM [13]: 102%
growth at 100 µM [14]: 68%
growth at 0.1 µM [15]: 107%
growth at 0.1 µM [16]: 99%
growth at 1 µM [17]: 96%
GI50 [1]: 2.06 µM
CC50 [1]: > 100 µM
growth at 0.1 µM [18]: 109%
IC50 [19]: 0.131 µM
GI50 [2]: 1.9 µM
CC50 [2]: > 100 µM
GI50 [3]: 2.49 µM
LC50 (concentration killing 50% of cells) [3]: > 100 µM
TGI [3]: 12.2 µM
growth at 0.01 µM [20]: 106%
growth at 1 µM [21]: 66%
growth at 1 µM [22]: 83%
growth at 100 µM [23]: 9%
GI50 [4]: 1.89 µM
TGI [4]: 4.21 µM
CC50 [4]: 9.39 µM
growth at 0.01 µM [24]: 97%
growth at 0.1 µM [25]: 97%
LC50 [5]: > 100 µM
TGI [5]: > 100 µM
GI50 [6]: 2.64 µM
TGI [6]: 9.73 µM
CC50 [6]: > 100 µM
growth at 0.01 µM [26]: 92%
growth at 0.1 µM [27]: 92%
GI50 [7]: 2.77 µM
LC50 (50% lethal concentration) [7]: > 100 µM
TGI [7]: 10.2 µM
GI50 [8]: 1.43 µM
TGI [8]: 4.29 µM
CC50 [8]: 59.2 µM
growth at 1 µM [28]: 82%
growth at 0.01 µM [29]: 101%
growth at 100 µM [30]: -49%
GI50 [9]: 1.78 µM
TGI [9]: 3.9 µM
growth at 100 µM [31]: 45%
growth at 0.01 µM [32]: 103%
growth at 0.01 µM [33]: 109%
GI50 [10]: 1.36 µM
TGI [10]: 4.1 µM
CC50 [10]: > 100 µM
growth at 0.01 µM [34]: 97%
